Data: patent US8357687B2, “Macrocyclic indole derivatives useful as hepatitis C virus inhibitors” (priority 2008, dated 2013)
pEC50, pIC50, pKd: −log10 of the molar value.

What was measured:
[1] = test system: NS5B chimeric replicon of clinical isolate 1a_H77 in Huh7-cure cells; assay: Transient replicon assay, chimeric replicon of clinical isolate 1a_H77 (CI1); assay type: cell-based, HCV genotype 1a; settings: Hepatitis C virus, 48 h, read-out: EC50-T CI1
[2] = test system: NS5B chimeric replicon of clinical isolate 1a—6 in Huh7-cure cells; assay: Transient replicon assay, chimeric replicon of clinical isolate 1a—6 (CI2); assay type: cell-based, HCV genotype 1a; settings: Hepatitis C virus, 48 h, read-out: EC50-T CI2
[3] = test system: wild type replicon of genotype 1b (con1b) in Huh7-cure cells; assay: Transient replicon assay, wild type replicon of genotype 1b (Con1b); assay type: cell-based, HCV genotype 1b; settings: Hepatitis C virus, transient wild type replicon genotype 1b, 48 h, luciferase, read-out: EC50-T Con1b
[4] = molecular target: T1, HCV NS5B polymerase (NS5BΔC21) (Hepatitis C virus genotype 1b, UniProt Q9WMX2); assay: RNA-dependent RNA polymerase assay (enzyme inhibition assay); assay type: biochemical, HCV (genotype 1b consensus strain Con1)
T1 construct: NS5B (genotype 1b consensus strain Con1) lacking 21 C-terminal residues; made in house; host or cells: E. coli Rosetta 2 (DE3)
Description: The coding sequence for NS5B (genotype 1b consensus strain Con1) lacking 21 C-terminal residues was amplified from plasmid pFKI389/ns3-3′ (Genbank accession no. AJ242654), plasmid pCV-H77C (Genbank accession no. AF 011751.1) and subcloned into the pET21b plasmid as described previously (Pauwels et al. J. Virol., 2007). The NS5BΔC21 expression constructs were transformed into E. coli Rosetta 2 (DE3) (Novagen, Madison, Wis.). One hundred milliliters of LB-medium supplemented with carbenicillin (50 μg/mL) and chloramphenicol (34 μg/mL) was inoculated with one colony, grown overnight, and transferred to fresh LB-medium supplemented with 3% ethanol, carbenicillin and chloramphenicol, at a ratio of 1:200. Cells were grown to an optical density at 600 nm of 0.6, after which the expression cultures were shifted to a growth temperature of 20° C. following induction with ispopropyl-1-thio-β-D-galactopyranoside and MgCl2 at a final concentration of 0.4 mM and 10 μM, respectively. After 18 h of induction, cells were harvested by centrifugation and resuspended in 20 mM Tris-HCl, pH 7.5, 300 mM NaCl, 10% glycerol, 0.1% NP40, 4 mM MgCl2, 5 mM DTT supplemented with EDTA-free Complete Protease Inhibitor (Roche, Basel, Switzerland). Cell suspensions were disrupted by sonication and incubated with 10-15 mg/L of DNase I (Roche, Basel, Switzerland) for 30 min. Cell debris was removed through ultracentrifugation at 30,000×g for 1 hour and clarified cell lysate was flash frozen and stored at −80° C. prior to purification.
Clarified cell lysate was thawed and subsequently loaded onto a 5 mL pre-packed HisTrap FF column equilibrated with 25 mM HEPES, pH 7.5, 500 mM NaCl, 10% glycerol and 5 mM DTT. Proteins were eluted with 500 mM imidazole at a flow rate of 1 mL/min. Fractions containing the protein of interest were applied onto a pre-packed 26/10 HiPrep Desalting Column equilibrated with 25 mM HEPES, pH 7.5, 250 mM NaCl, 10% glycerol and 5 mM DTT. The buffer-exchanged NS5B peak was then applied onto a 6 ml Resource S column. Protein was eluted with an increasing salt gradient and fractions collected. Protein purity was assessed on Nu-PAGE pre-cast gels (Invitrogen, Carlsbad, Calif.). Purified NS5B samples were concentrated using Centri-Prep concentrators (Millipore, Billerica, Mass., USA) and protein concentrations were determined by spectrofotometry with the Nanodrop (Nanodrop Technologies, Wilmington, Del., USA).
Measurement of HCV NS5B polymerization activity was performed by evaluating the amount of radio labeled GTP incorporated by the enzyme in a newly synthesized RNA using […] RNA template/primer. The RdRp assay was carried out in 384-well plates. 2.5 nM of purified NS5B enzyme was pre-incubated for 10 min with 150 nM 5′-biotinylated oligo(rG13) primer, 15 nM poly(rC) template, in 18 mM Tris-HCl, pH 7.5, 5 mM MgCl2, 20.5 mM KCl, 17 mM NaCl and 2.5 mM of DTT. The test compounds were the added to the preformed polymerase-template complex, and incubated at room temperature for 15 min before the addition 600 nM of GTP, and 0.13 μCi of [^3H]GTP. 30 μL reaction mixture was incubated at room temperature for 2 h before stopping the reaction by adding 30 μL of streptavidin coated SPA-beads (GE Healthcare, Uppsala, Sweden) in 0.5 M EDTA. […] IC50 values represent the concentration of compound required to decrease by 50% the amount of RNA produced which is measured by the detection of incorporated radiolabeled GTP.

[5] = Pharmacokinetic analysis after single oral administration; assay type: in vivo; settings: male Sprague-Dawley rats, single oral dose 10 mg/kg, 7 h post dosing; for Kp at 7 h: rat, liver/plasma, read-out: Lever/plasma ratio
Experimental: Three male Sprague-Dawley rats were given a single oral dose of 10 mg/kg of the studied compounds. The compounds were administered by gavage as a solution in PEG400/2% Vitamine E Tocopherol polyethyleneglycol succinate (Vitamin E-TPGS). 7 hours after administration, the animals were sacrificed and plasma and liver samples taken. The samples were analyzed using a qualified research LC-MS/MS method to determine the concentration of the compound in the liver and the liver-to-plasma ratio at 7 h post dosing.

[6] = molecular target: T2, NS5B wild-type enzyme genotype 1a (Hepatitis C virus genotype 1a, UniProt P27958); assay: Enzyme binding assay (SPR, Biacore), genotype 1a; set-up: species or system HCV genotype 1a
T2 construct: The purified HIS6-tagged NS5BΔC21 polymerases were immobilized; made in house; host or cells: E. coli Rosetta 2 (DE3)
T2 sequence (P27958 2421-2990): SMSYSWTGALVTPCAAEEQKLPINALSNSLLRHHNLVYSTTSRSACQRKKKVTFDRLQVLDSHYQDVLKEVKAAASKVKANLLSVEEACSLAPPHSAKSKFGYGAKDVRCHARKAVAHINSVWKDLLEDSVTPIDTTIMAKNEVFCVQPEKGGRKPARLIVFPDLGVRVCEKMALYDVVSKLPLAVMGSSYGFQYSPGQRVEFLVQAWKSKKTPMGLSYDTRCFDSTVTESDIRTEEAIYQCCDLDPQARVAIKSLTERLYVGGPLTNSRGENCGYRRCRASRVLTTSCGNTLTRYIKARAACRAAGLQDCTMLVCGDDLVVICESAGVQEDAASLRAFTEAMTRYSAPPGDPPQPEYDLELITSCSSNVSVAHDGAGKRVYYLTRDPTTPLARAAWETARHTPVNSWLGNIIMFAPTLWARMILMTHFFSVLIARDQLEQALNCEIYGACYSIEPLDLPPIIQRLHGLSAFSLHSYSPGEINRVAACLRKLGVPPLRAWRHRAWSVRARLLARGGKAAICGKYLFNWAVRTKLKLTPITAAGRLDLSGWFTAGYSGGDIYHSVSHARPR
Experimental: (§1) The compounds of formula (I) were examined for their enzymatic binding kinetics or affinity using a Surface Plasmon Resonance (SPR)-based method, i.e. Biacore. A slow dissociation of the inhibiting compound from its viral target (low koff, low Kd) is believed to potentially reduce the development of drug resistance against anti-viral drugs (Dierynck et al. 2007. Journal of Virology, vol. 81, No. 24, 13845-13851). All measurements were performed on a Biacore T100 instrument (GE Healthcare). The purified HIS6-tagged NS5BΔC21 polymerases were immobilized using non-covalent capturing to an NTA sensor chip (GE Healthcare) in immobilization buffer (20 mM MOPS pH 7.4, 500 mM NaCl, 0.005% Tween-P20, 1 mM DTT, 50 μM EDTA). Interaction studies were all performed at 25° C. Inhibitors were serially diluted in running buffer (20 mM Tris-HCl pH 7.4, 150 mM NaCl, 50 μM EDTA, 1 mM DTT, 0.005% Tween-P20) containing 5% dimethyl sulfoxide (DMSO). Single-cycle kinetics were used, in which 5 increasing concentrations of compound were injected for a period of 300 s each in 1 single cycle, and dissociation was monitored for a period of 1200 s. The sensor surface was completely regenerated in between the cycles. Data were analyzed using simultaneous nonlinear regression analysis (global fitting) adapted for single-cycle kinetics with Biacore T100 BiaEval evaluation software 2.0 (GE Healthcare). The individual rate constants kon and koff and a derived affinity constant, Kd=koff/kon, were determined by a kinetic evaluation of the sensorgrams. The kinetic models accounted for bulk and limited mass transport effects. Every analysis was performed at least in two independent experiments. The dissociation rate of a kinetic interaction can be translated into a compound residence time (dissociative half-life t1/2=ln(2)/koff) representative for the interaction time between the polymerase and its inhibitor.
(§2) The observed association rate constants (kon), dissociation rate constants (koff), derived affinity constant (Kd) and dissociative half-life (t1/2) measured for compounds of formula (I) or subgroups thereof on NS5B wild-type enzyme genotypes 1a, 1b and 4a are given in Table 2.

[7] = molecular target: T3, NS5B wild-type enzyme genotype 4a (UniProt O39929); assay: Enzyme binding assay (SPR, Biacore), genotype 4a; set-up: species or system HCV genotype 4a
T3 construct: fused on or other part: His6 tag
Experimental: as §1, §2

[8] = molecular target: T4, NS5B wild-type enzyme genotype 1b (Hepatitis C virus genotype 1b, UniProt Q9WMX2); assay: Enzyme binding assay (SPR, Biacore), genotype 1b
T4 construct: NS5B (genotype 1b consensus strain Con1) lacking 21 C-terminal residues; made in house; host or cells: E. coli Rosetta 2 (DE3)
Experimental: as §1, §2

SMILES	pEC50 [1]	pEC50 [2]	pEC50 [3]	pIC50 [4]	Concentration Liver [5] [ng/g]	Kp at 7 h [5]	pKd [6]	koff [6] [s⁻¹]	kon ([6]; genotype 1a, SPR, 25° C.)	t1/2 (dissociative half-life) ([6]; genotype 1a, t1/2=ln(2)/koff) [s]	pKd ([7]; Kd=koff/kon)	koff ([7]; SPR, 25° C.) [s⁻¹]	kon ([7]; SPR, 25° C.)	t1/2 (dissociative half-life) ([7]; t1/2=ln(2)/koff) [s]	pKd [8]	koff ([8]; genotype 1b, SPR, 25° C.) [s⁻¹]	kon ([8]; genotype 1b, SPR, 25° C.)	t1/2 (dissociative half-life) ([8]; genotype 1b, t1/2=ln(2)/koff) [s]
CN1CCCCN(C)S(=O)(=O)NC(=O)c2ccc3c(C4CCCCC4)c(n(C)c3c2)-c2ccccc2OCC1=O [Compound 15, 24-cyclohexyl-4,9,18-trimethyl-4,5,6,7,8,9-hexahydro-13,17:16,19-di(metheno)-1,10,4,9,11,18-benzoxathiatetraazacyclohenicosine-3,12(2H,11H,18H)-dione 10,10-dioxide]	6.99	7.00	6.77	6.91	1524	99	–	–	–	–	–	–	–	–	–	–	–	–
CN1CCOCCN(C)S(=O)(=O)NC(=O)c2ccc3c(C4CCCCC4)c(n(C)c3c2)-c2ccccc2OCC1=O [Compound 10, 25-cyclohexyl-4,10,19-trimethyl-5,6,9,10-tetrahydro-2H,8H-14,18:17,20-di(metheno)-1,7,11,4,10,12,19-benzodioxathiatetraazacyclodocosine-3,13 (4H,12H,19H)-dione 11,11-dioxide]	6.92	7.06	7.12	6.79	1717	64	–	–	–	–	–	–	–	–	–	–	–	–
CN1CCCCCNC(=O)COc2cc(F)ccc2-c2c(C3CCCCC3)c3ccc(cc3n2C)C(=O)NS1(=O)=O [Compound 50, 25-cyclohexyl-23-fluoro-10,19-dimethyl-5,6,7,8,9,10-hexahydro-2H-14,18:17,20-di(metheno)-1,11,4,10,12,19-benzoxathiatetraazacyclodocosine-3,13(4H,12H,19H)-dione 11,11-dioxide]	6.93	6.81	6.60	6.96	–	–	7.40	0.0067	1.7E+05 1/MS	103	8.04	0.002	2.2E+05 1/MS	343	7.60	0.0006	2.3E+04 1/MS	1163
